One block for each molecule: values may come before it. Activity calls are given as the source filed them. The calls are words filed in the database; no cut-off is given here.
Assays:
[1] = biological target: T1, Histone-lysine N-methyltransferase SMYD3 (Homo sapiens) (UniProt Q9H7B4); assay: (§1) Inhibition of GST-tagged SMYD3 (unknown origin) using biotinylated MAP3K2 peptide as substrate incubated for 1 hrs by TR-FRET based assay
T1 sequence (whole entry): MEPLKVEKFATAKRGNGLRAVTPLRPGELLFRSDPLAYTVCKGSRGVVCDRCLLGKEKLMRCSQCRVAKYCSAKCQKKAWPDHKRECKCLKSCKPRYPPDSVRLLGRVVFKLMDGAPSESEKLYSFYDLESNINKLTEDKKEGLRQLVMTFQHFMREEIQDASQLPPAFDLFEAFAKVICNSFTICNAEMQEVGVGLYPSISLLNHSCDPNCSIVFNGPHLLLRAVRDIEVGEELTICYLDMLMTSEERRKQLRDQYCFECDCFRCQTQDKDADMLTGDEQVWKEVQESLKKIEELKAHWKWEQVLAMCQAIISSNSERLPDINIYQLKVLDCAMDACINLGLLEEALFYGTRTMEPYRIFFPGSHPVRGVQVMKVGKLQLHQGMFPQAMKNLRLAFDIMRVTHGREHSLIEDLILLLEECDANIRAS

[2] = test system: HGC-27; assay: Antiproliferative activity against human HGC-27 cells assessed as inhibition of cell proliferation by MTT assay; assay type: functional, cell-based
[3] = test system: BGC-823; assay: Antiproliferative activity against human BGC-823 cells assessed as inhibition of cell proliferation by MTT assay; assay type: functional, cell-based
[4] = biological target: T2, Histone-lysine N-methyltransferase SMYD3 (Homo sapiens, UniProt Q9H7B4); assay: as §1
T2 sequence (Q9H7B4 whole entry): T1 sequence (whole entry)

[5] = biological target: T1, Histone-lysine N-methyltransferase SMYD3 (Homo sapiens); assay: Inhibition of SMYD3 in human BGC-823 cells assessed as suppression of H3K4 methylation level at 1 uM by Western blot analysis; assay type: cell-based
[6] = test system: BGC-823; assay: Effect on total H3 methylation level in human BGC-823 cells at 1 uM by Western blot analysis; assay type: functional, cell-based
[7] = test system: BGC-823; assay: Effect on total H3 expression level in human BGC-823 cells at 1 uM by Western blot analysis; assay type: functional, cell-based
[8] = biological target: N-lysine methyltransferase SMYD2 (Homo sapiens) (UniProt Q9NRG4); assay: Inhibition of SMYD2 (unknown origin)
N-lysine methyltransferase SMYD2 (Homo sapiens), sequence (Q9NRG4 whole entry): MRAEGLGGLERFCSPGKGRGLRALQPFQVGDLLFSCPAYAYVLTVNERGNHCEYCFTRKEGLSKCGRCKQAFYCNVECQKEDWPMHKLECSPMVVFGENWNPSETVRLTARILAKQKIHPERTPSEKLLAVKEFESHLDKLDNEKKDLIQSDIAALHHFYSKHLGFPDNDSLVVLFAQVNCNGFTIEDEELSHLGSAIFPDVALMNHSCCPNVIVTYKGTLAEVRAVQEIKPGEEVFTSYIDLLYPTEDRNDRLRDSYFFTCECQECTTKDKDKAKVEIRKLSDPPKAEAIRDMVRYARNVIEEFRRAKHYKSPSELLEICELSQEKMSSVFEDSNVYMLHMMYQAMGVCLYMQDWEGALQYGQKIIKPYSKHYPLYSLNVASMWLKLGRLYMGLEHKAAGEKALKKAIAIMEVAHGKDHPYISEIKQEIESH

[9] = biological target: T3, Histone-lysine N-methyltransferase EHMT2 (Homo sapiens) (UniProt Q96KQ7); assay: Inhibition of G9a (unknown origin)
T3 sequence (whole entry): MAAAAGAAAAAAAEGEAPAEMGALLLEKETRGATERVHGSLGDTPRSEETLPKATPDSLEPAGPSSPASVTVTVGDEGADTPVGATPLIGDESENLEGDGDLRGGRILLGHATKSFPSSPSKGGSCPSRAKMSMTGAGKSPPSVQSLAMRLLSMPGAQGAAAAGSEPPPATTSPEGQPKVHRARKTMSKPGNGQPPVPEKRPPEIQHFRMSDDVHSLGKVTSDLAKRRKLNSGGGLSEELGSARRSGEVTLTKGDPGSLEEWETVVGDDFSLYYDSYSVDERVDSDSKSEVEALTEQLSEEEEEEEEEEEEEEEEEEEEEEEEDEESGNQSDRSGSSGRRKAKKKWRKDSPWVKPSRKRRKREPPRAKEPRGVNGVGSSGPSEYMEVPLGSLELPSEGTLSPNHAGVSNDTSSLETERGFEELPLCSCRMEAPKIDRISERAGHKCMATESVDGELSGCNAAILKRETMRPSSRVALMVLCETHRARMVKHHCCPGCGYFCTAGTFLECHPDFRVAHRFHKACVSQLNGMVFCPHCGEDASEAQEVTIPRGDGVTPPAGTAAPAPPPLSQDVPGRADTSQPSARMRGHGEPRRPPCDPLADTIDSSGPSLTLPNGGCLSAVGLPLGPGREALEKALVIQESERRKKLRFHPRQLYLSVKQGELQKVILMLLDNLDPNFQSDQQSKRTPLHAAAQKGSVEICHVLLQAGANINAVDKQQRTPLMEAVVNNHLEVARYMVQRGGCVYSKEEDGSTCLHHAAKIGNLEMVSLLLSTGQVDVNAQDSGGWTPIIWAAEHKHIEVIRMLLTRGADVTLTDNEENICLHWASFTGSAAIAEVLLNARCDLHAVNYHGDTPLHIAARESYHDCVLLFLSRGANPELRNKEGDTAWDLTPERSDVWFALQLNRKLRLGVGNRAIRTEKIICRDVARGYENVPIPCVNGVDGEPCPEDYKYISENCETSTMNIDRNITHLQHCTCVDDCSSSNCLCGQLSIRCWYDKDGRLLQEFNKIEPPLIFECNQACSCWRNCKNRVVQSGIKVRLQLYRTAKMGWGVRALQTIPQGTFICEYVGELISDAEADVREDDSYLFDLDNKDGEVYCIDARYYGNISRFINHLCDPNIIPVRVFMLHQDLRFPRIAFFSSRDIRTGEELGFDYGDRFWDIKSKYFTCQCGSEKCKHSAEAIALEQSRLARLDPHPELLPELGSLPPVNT

[10] = biological target: Histone-lysine N-methyltransferase EZH2 (Homo sapiens) (UniProt Q15910); assay: Inhibition of EZH2 (unknown origin)
Histone-lysine N-methyltransferase EZH2 (Homo sapiens), sequence (Q15910 whole entry, looked up): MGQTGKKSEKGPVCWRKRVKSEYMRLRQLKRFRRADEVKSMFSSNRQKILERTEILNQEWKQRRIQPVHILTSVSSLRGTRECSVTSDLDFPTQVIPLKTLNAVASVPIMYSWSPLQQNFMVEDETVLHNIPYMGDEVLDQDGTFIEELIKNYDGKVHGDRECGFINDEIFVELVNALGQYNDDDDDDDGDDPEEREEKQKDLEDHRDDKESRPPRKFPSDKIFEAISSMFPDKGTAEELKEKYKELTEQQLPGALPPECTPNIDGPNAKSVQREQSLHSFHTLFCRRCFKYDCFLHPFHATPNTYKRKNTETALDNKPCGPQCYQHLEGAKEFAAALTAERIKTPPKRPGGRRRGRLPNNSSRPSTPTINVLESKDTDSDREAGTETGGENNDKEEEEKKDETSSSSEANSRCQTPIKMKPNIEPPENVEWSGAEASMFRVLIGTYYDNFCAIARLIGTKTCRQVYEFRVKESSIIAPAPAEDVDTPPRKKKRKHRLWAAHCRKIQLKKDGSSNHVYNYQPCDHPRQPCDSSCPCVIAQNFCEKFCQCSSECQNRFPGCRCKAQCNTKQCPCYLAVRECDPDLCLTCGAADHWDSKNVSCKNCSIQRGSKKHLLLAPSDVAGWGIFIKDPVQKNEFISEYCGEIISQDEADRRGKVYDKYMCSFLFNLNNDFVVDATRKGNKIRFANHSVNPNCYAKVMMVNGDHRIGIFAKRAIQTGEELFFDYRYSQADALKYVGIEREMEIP

[11] = biological target: Histone-lysine N-methyltransferase, H3 lysine-79 specific (Homo sapiens) (UniProt Q8TEK3); assay: Inhibition of DOT1L (unknown origin)
Histone-lysine N-methyltransferase, H3 lysine-79 specific (Homo sapiens), sequence (Q8TEK3 whole entry, looked up): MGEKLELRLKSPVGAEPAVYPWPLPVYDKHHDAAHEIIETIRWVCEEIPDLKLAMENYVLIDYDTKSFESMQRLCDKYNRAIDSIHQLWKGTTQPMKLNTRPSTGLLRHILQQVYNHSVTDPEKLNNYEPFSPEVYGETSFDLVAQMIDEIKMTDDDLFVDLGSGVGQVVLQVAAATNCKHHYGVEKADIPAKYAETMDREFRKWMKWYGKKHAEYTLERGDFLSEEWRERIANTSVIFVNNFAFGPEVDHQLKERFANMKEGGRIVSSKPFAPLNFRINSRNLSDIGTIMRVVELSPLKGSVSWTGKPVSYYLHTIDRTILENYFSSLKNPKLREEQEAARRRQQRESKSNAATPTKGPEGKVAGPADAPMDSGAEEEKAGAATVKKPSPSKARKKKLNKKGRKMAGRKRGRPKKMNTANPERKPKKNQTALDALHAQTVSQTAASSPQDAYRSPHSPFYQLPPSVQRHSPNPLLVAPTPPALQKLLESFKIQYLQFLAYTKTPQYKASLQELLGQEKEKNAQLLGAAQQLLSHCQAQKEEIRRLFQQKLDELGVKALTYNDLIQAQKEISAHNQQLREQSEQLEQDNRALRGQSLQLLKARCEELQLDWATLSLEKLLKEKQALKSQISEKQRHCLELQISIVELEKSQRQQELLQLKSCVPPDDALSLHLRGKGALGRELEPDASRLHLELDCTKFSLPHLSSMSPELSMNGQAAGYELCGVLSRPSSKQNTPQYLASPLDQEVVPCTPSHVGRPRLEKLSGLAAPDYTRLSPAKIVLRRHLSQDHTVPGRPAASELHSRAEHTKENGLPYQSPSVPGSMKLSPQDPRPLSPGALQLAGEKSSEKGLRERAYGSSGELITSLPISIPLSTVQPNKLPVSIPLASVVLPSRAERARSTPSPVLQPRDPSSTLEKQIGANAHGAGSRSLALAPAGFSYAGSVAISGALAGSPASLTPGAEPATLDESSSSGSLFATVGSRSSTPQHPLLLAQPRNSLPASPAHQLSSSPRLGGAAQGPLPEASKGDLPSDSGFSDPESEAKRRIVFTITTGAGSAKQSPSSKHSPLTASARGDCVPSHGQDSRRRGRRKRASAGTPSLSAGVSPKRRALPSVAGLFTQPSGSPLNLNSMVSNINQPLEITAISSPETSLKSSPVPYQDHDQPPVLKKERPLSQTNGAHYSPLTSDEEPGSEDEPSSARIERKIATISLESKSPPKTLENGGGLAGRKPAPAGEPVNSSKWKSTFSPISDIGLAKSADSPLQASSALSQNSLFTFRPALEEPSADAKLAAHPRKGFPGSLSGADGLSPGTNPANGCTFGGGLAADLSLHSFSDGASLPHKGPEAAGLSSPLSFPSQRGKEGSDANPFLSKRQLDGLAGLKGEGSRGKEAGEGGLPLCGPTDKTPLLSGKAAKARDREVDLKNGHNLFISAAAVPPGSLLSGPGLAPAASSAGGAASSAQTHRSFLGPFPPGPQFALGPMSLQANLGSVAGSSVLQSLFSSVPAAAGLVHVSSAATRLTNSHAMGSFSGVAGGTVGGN

[12] = biological target: T1, Histone-lysine N-methyltransferase SMYD3 (Homo sapiens); assay: Inhibition of SMYD3 in human BGC-823 cells transfected with SMYD3 siRNA assessed as suppression of H3K4 methylation level by Western blot analysis; assay type: cell-based
[13] = biological target: T1, Histone-lysine N-methyltransferase SMYD3 (Homo sapiens); assay: Inhibition of SMYD3 in human BGC-823 cells assessed as translocation of SMYD3 from nucleus to cytoplasm by DAPI staining based analysis; assay type: cell-based
[14] = test system: BGC-823; assay: Induction of autophagy in human BGC-823 cells assessed as autophagic vacuoles by transmission electron microscopic analysis; assay type: functional, cell-based
[15] = test system: BGC-823; assay: Antiproliferative activity against human BGC-823 cells assessed as reduction in cell viability incubated for 48 hrs in the presence of 3-MA by MTT assay; assay type: functional, cell-based
[16] = biological target: T1, Histone-lysine N-methyltransferase SMYD3 (Homo sapiens); assay: Inhibition of SMYD3-induced Akt1 lysine methylation in human BGC-823 cells at 1 uM by Western blot analysis; assay type: cell-based
[17] = test system: BGC-823; assay: Induction of autophagy in human BGC-823 cells transfected with GFP-LC3 assessed as increase in GFP-LC3 fluorescent puncta by DAPI staining based immunofluorescence analysis; assay type: functional, cell-based
[18] = test system: BGC-823; assay: Induction of autophagy in human BGC-823 cells transfected with GFP-LC3 assessed as increase in GFP-LC3 fluorescent puncta in the presence of 3-MA by DAPI staining based immunofluorescence analysis; assay type: functional, cell-based
[19] = test system: BGC-823; assay: Antiproliferative activity against human BGC-823 cells transfected with […] siRNA assessed as reduction in cell viability incubated for 48 hrs by MTT assay; assay type: functional, cell-based
[20] = test system: BGC-823; assay: Inhibition of autophagic flux in human BGC-823 cells assessed as inhibition of autophagosome-lysosome fusion by measuring suppression of GFP-LC3 and LAMP1 intracellular co-localization incubated for 24 hrs by DAPI staining based immunofluorescence analysis; assay type: functional, cell-based
[21] = test system: BGC-823; assay: Inhibition of autophagic flux in human BGC-823 cells transfected with Akt1 siRNA assessed as LC3 cleavage incubated for 24 hrs by Western blot analysis; assay type: functional, cell-based
[22] = test system: BGC-823; assay: Inhibition of autophagic flux in human BGC-823 cells transfected with Akt1 siRNA assessed as p62 accumulation incubated for 24 hrs by Western blot analysis; assay type: functional, cell-based
[23] = test system: BGC-823; assay: Antitumor activity against human BGC-823 cells xenografted in ip dosed Balb/c nude mouse assessed as suppression of tumor volume; assay type: functional, organism-based; conditions: dose 15-30 mg/kg
[24] = test system: BGC-823; assay: Antitumor activity against human BGC-823 cells xenografted in ip dosed Balb/c nude mouse assessed as suppression of tumor weight; assay type: functional, organism-based; conditions: dose 15-30 mg/kg
[25] = test system: BGC-823; assay: Antitumor activity against human BGC-823 cells xenografted in ip dosed Balb/c nude mouse assessed as suppression of tumor growth; assay type: functional, organism-based; conditions: dose 15-30 mg/kg
[26] = test system: BGC-823; assay: Antiproliferative activity against human BGC-823 cells xenografted in Balb/c nude mouse assessed as induction of autophagy by measuring increase in LC3-II staining at 15 to 30 mg/kg, ip by immunohistochemistry analysis; assay type: functional, organism-based; conditions: dose 15-30 mg/kg
[27] = test system: BGC-823; assay: Antiproliferative activity against human BGC-823 cells xenografted in Balb/c nude mouse assessed as induction of autophagy by measuring increase in p62 staining at 15 to 30 mg/kg, ip by immunohistochemistry analysis; assay type: functional, organism-based; conditions: dose 15-30 mg/kg
[28] = test system: Mus musculus; assay: Effect on total SMYD3 protein level in Balb/c nude mouse xenografted with human BGC-823 cells at 15 to 30 mg/kg, ip by immunohistochemistry analysis; assay type: functional, organism-based; conditions: dose 15-30 mg/kg
[29] = test system: Mus musculus; assay: Effect on total Akt protein level in Balb/c nude mouse xenografted with human BGC-823 cells at 15 to 30 mg/kg, ip by immunohistochemistry analysis; assay type: functional, organism-based; conditions: dose 15-30 mg/kg
[30] = Toxicity in Balb/c nude mouse xenografted with human BGC-823 cells assessed as change in body weight at 15 to 30 mg/kg, ip; assay type: organism-based; conditions: in vivo, dose 15-30 mg/kg
[31] = Toxicity in Balb/c nude mouse xenografted with human BGC-823 cells assessed as change in main organs morphology at 15 to 30 mg/kg, ip by H&E staining based analysis; assay type: organism-based; conditions: in vivo, dose 15-30 mg/kg
[32] = test system: BGC-823; assay: Inhibition of autophagic flux in human BGC-823 cells transfected with Akt1 siRNA assessed as increase in mTOR incubated for 24 hrs by Western blot analysis; assay type: functional, cell-based
[33] = test system: BGC-823; assay: Inhibition of autophagic flux in human BGC-823 cells assessed as LC3-II accumulation incubated for 24 hrs in the presence of 3-MA by Western blot analysis; assay type: functional, cell-based
[34] = test system: BGC-823; assay: Inhibition of autophagic flux in human BGC-823 cells assessed as p62 accumulation incubated for 24 hrs in the presence of 3-MA by Western blot analysis; assay type: functional, cell-based

Structure (SMILES): O=C1N(Cc2ccccc2)C[C@@H]2[C@@H](c3cccs3)[C@]3(O[C@]12O)C(=O)Nc1ccccc13
inhibition [1]: Active
Activity [2]: Active
Activity [3]: Active

Structure (SMILES): O=C1N(Cc2ccccc2)C[C@@H]2[C@@H](c3ccc(Cl)cc3Cl)[C@]3(O[C@]12O)C(=O)Nc1ccccc13
inhibition [1]: Active
Activity [2]: Active
Activity [3]: Active

Structure (SMILES): O=C1N(Cc2ccccc2)C[C@@H]2[C@@H](c3ccc(Br)cc3)[C@]3(O[C@]12O)C(=O)Nc1ccccc13
IC50 [4]: 810 nM
Activity [2]: Active
IC50 [3]: 750 nM
inhibition [5]: Active
Activity [6]: inactive
Activity [7]: inactive
inhibition [8]: inactive
inhibition [9]: inactive
inhibition [10]: inactive
inhibition [11]: inactive
inhibition [12]: Active
inhibition [13]: Active
Activity [14]: Active
Activity [15]: inactive
inhibition [16]: Active
Activity [17]: Active
Activity [18]: inactive
Activity [19]: inactive
inhibition [20]: Active
inhibition [21]: Active
inhibition [22]: Active
Activity [23]: Dose-Dependent Effect
Activity [24]: Dose-Dependent Effect
Activity [25]: Dose-Dependent Effect
Activity [26]: Active
Activity [27]: Active
Activity [28]: inactive
Activity [29]: inactive
Activity [30]: Non-Toxic
Activity [31]: Non-Toxic
inhibition [32]: Active
inhibition [33]: Active
inhibition [34]: Active

Structure (SMILES): O=C1N(Cc2ccccc2)C[C@@H]2[C@@H](c3ccc4ccccc4c3)[C@]3(O[C@]12O)C(=O)Nc1ccccc13
inhibition [1]: Active
Activity [2]: Active
Activity [3]: Active

More lines, main results first:

inhibition [1]: Active
Structure (SMILES): Cc1ccc([C@@H]2[C@H]3CN(Cc4ccccc4)C(=O)[C@@]3(O)O[C@]23C(=O)Nc2ccccc23)cc1
Activity [2]: Active
Activity [3]: Active

inhibition [1]: Active
Structure (SMILES): COc1ccc([C@@H]2[C@H]3CN(Cc4ccccc4)C(=O)[C@@]3(O)O[C@]23C(=O)Nc2ccccc23)cc1OC
Activity [2]: Active
Activity [3]: Active

inhibition [1]: Active
Structure (SMILES): O=C1N(Cc2ccccc2)C[C@@H]2[C@@H](c3ccc(Cl)cc3)[C@]3(O[C@]12O)C(=O)Nc1ccccc13
Activity [2]: Active
Activity [3]: Active

— ChEMBL document CHEMBL5331080, “Discovery of tetrahydrofuranyl spirooxindole-based SMYD3 inhibitors against gastric cancer via inducing lethal autophagy” (Eur J Med Chem, 2023)
